For experiment [1], the target named is NAD-dependent protein deacylase sirtuin-5, mitochondrial (Homo sapiens, UniProt Q9NXA8). Description: blockers of sirtuin-5 peptide desuccinylation – biochemical, fluorescence imaging, cherry-pick, set 6, dose response (AID 720597).
In experiment [2] the target is Mannose-6-phosphate isomerase (Homo sapiens, UniProt P34949). Description: MPI inhibition at elevated mannose 6-phosphate – biochemical, fluorescence intensity, high mannose 6-phosphate, primary screen (AID 1220).
In a further experiment the target is Nonstructural protein 1 (Influenza A virus, UniProt Q194T2). Format: functional, Influenza A virus (A/California/07/2009(H1N1)).
The target in the next experiment is ELAV-like protein 1 (Homo sapiens, UniProt Q15717). Description: Identify HuR specific inhibitors. The experiment is classed as functional.
Experiment [3] deals with Sphingosine 1-phosphate receptor 2 (Homo sapiens, UniProt O95136). Kind of experiment: Dose Response Cell Based Assay for Agonists of the S1P2 Receptor. [Related pubchem assays: 729, 736, 843 ]. Format: functional.
Experiment [4] in a line: P. falciparum Dd2 growth inhibitors, dose response, SYBR Green, cherry-picked samples (AID 1159567). The experiment is classed as functional, cell-based.
The nature of experiment [5]: growth inhibition of yeast DHODH-expressing 3D7 parasites – SYBR Green, dry powder samples, dose response (AID 1159570).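 Further: parasite growth measured after 72 hours of compound exposure.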 The experiment is classed as functional, cell-based.
The nature of experiment [6]: Dd2 malaria parasite growth inhibition potency – SYBR Green, dry powder samples, dose response (AID 1159566).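 Further: potency for growth inhibition with lower SYBR green DNA signal.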 The experiment is classed as functional, cell-based.
Experiment [7] can be described thus: toxicity to human hepatoma HepG2 cells – cell-based, cherry-picked samples, cytotoxicity control, dose response (AID 1159577). The experiment is classed as functional.
Experiment [8] in a line: growth inhibition of PfATP4-mutant resistant parasites – NITD609-resistant line, SYBR Green, dry powder, dose response (AID 1159571).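 Further: parasites synchronized at ring stage by sorbitol before testing.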 Format: functional, cell-based.
Experiment [9] is described as follows: Plasmodium falciparum Dd2 Sybr green parasite growth Measured in Cell-Based and Microorganism Combination System Using Plate Reader - 2153-01_Inhibitor_Dose_DryPowder_Activity_Set10. Format: functional.
For experiment [10], the target named is T1, Short transient receptor potential channel 4 (Mus musculus, UniProt Q9QUQ5).
T1 sequence (Q9QUQ5 whole entry): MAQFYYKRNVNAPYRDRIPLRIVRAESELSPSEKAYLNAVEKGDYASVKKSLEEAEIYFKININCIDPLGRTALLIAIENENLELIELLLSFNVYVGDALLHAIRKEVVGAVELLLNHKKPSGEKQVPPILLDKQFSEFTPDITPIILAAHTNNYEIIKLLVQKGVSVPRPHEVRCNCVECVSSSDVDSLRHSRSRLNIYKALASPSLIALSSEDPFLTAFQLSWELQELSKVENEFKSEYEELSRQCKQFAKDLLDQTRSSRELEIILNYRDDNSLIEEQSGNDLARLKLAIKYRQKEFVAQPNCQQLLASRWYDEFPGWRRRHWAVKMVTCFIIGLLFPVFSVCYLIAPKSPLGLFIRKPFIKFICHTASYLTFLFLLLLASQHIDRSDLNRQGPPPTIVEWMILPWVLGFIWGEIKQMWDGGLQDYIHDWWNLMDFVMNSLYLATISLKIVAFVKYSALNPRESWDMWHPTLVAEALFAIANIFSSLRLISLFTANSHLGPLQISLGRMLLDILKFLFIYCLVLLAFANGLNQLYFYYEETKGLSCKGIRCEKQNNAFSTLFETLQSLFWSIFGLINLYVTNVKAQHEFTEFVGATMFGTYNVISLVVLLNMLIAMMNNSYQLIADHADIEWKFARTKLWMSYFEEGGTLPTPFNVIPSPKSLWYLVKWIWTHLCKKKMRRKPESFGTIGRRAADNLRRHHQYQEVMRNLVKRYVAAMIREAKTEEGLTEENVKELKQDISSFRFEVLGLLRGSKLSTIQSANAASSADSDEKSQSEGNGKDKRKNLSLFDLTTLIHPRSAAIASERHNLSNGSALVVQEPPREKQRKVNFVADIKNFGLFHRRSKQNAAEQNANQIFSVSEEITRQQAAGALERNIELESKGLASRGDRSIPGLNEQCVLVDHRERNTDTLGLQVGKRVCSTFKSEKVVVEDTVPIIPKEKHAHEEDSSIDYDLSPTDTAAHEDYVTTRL
Kind of experiment: block of DAMGO-driven TRPC4 calcium entry – cell-based, HEK293 TRPC4/mu-opioid, Fluo-4 calcium, dose response (AID 434942).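 Further: potency of inhibitors blocking the TRPC4 calcium response.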 Format: functional.

In experiment [11] the target is Voltage-gated inwardly rectifying potassium channel KCNH2 (Homo sapiens, UniProt Q12809). Description: concentration-dependent hERG rescue from blockers – cell-based, thallium flux, dose response (AID 2121). The experiment is classed as ADME.
Experiment [12] addresses Luciferin 4-monooxygenase (Photinus pyralis, UniProt P08659). Kind of experiment: inhibition of purified Photinus pyralis luciferase – biochemical, luminescence, dose response (AID 1891).
A short description of experiment [13]: Luminescence Cell-Based Dose Confirmation HTS to Identify Inhibitors of Platelet Dense Granule Release. [Related pubchem assays: 1663 (Primary HTS), 1678 (Summary of Project)]. The experiment is classed as functional.
Experiment [14] addresses T2, Oxysterols receptor LXR-beta (Homo sapiens, UniProt P55055).
T2 sequence (P55055 whole entry): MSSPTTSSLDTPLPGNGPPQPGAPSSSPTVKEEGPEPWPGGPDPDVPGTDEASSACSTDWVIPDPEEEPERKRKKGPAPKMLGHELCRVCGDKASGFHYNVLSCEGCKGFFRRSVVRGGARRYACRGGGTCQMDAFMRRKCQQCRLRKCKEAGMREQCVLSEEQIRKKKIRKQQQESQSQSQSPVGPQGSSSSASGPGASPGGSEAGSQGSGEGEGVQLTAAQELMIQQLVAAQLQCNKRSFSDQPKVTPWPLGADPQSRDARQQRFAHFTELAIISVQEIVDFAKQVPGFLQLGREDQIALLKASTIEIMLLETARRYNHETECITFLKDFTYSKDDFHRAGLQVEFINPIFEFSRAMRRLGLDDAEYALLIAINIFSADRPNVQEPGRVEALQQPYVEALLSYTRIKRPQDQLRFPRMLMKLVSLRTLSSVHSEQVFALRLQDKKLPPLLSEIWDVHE
Format: functional, cell-based.

Experiment [15] has as its target T3, Tyrosine-protein phosphatase non-receptor type 7 (Homo sapiens, UniProt P35236).
T3 sequence (P35236 whole entry): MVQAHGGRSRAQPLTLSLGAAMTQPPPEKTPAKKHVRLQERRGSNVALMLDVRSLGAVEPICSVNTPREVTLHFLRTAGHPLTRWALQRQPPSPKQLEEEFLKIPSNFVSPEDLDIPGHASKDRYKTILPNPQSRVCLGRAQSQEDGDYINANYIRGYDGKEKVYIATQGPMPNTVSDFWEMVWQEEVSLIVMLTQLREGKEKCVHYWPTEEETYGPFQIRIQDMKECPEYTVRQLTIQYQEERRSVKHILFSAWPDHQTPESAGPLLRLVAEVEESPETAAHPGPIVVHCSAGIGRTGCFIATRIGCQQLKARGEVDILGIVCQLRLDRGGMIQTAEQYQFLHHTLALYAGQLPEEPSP
Description: HePTP tyrosine phosphatase activity blockers – biochemical, absorbance, leukemia target, primary screen (AID 521). Format: functional.

Values joined by “and” are separate entries in the source; they are usually repeats but may differ in a detail not shown here. Equal values may be shown once. Active and inactive are the calls of the source. A value given as a limit tells only on which side of the number the result lay.

Sequence of Voltage-gated inwardly rectifying potassium channel KCNH2 (Q12809 whole entry): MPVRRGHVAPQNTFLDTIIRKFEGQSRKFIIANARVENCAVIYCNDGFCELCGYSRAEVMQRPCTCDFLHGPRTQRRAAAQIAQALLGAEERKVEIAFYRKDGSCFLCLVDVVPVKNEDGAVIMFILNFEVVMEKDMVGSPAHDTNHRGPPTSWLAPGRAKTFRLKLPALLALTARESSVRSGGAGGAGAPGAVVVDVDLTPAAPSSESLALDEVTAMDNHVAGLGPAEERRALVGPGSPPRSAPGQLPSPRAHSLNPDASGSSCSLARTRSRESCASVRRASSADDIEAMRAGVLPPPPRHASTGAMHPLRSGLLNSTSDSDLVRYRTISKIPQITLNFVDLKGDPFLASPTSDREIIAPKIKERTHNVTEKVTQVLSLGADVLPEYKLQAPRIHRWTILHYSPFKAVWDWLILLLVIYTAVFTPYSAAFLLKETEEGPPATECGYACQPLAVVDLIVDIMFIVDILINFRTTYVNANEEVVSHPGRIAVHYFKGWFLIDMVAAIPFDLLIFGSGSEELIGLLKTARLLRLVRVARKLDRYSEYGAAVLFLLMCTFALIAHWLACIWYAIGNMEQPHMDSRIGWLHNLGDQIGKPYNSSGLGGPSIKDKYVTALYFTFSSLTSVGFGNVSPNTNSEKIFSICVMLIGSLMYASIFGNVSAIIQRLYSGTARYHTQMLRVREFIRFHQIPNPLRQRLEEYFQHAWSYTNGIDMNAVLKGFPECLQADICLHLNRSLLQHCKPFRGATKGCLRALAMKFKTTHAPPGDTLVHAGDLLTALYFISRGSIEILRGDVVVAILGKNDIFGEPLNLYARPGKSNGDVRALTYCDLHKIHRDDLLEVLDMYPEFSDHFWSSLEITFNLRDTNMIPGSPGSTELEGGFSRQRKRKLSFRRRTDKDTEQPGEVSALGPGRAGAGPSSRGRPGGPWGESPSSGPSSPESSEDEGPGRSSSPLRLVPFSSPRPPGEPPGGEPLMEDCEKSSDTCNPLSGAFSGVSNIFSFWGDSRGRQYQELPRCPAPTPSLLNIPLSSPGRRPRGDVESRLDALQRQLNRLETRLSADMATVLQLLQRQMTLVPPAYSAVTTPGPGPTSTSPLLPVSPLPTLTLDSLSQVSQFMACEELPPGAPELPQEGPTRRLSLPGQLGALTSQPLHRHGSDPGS
Sequence of Sphingosine 1-phosphate receptor 2 (O95136 whole entry): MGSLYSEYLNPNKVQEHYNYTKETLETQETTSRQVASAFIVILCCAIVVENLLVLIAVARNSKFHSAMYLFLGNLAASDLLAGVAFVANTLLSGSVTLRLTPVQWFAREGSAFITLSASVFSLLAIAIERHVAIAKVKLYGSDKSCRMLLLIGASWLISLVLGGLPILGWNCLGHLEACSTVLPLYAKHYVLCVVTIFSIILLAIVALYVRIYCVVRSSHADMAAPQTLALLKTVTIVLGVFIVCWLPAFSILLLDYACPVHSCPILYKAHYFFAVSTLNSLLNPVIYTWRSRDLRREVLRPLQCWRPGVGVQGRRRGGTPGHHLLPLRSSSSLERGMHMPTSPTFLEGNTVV
Sequence of NAD-dependent protein deacylase sirtuin-5, mitochondrial (Q9NXA8 whole entry): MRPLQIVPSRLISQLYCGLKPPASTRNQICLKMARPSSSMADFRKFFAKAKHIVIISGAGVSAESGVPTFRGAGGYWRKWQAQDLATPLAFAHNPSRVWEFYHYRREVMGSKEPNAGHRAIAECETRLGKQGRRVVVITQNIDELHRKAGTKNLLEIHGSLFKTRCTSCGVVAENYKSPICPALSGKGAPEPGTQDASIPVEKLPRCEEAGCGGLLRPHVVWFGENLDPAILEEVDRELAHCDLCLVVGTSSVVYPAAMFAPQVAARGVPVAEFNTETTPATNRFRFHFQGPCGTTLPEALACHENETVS
Sequence of Nonstructural protein 1 (Q194T2 whole entry): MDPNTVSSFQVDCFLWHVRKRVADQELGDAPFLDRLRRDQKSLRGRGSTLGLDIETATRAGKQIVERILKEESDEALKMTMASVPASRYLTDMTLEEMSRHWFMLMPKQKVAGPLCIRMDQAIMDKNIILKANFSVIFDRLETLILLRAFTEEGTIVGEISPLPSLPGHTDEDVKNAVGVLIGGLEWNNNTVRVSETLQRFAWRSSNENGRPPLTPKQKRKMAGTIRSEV
Sequence of ELAV-like protein 1 (Q15717 whole entry): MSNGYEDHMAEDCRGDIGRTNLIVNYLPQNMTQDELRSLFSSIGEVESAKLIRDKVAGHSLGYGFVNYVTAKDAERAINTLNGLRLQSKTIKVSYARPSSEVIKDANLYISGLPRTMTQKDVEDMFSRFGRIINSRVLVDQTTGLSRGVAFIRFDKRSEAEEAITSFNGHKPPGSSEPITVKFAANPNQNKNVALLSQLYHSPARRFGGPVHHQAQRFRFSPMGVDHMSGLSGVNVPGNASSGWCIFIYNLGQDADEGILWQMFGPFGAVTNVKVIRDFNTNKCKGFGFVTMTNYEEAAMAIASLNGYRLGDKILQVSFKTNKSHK
Sequence of Luciferin 4-monooxygenase (P08659 whole entry): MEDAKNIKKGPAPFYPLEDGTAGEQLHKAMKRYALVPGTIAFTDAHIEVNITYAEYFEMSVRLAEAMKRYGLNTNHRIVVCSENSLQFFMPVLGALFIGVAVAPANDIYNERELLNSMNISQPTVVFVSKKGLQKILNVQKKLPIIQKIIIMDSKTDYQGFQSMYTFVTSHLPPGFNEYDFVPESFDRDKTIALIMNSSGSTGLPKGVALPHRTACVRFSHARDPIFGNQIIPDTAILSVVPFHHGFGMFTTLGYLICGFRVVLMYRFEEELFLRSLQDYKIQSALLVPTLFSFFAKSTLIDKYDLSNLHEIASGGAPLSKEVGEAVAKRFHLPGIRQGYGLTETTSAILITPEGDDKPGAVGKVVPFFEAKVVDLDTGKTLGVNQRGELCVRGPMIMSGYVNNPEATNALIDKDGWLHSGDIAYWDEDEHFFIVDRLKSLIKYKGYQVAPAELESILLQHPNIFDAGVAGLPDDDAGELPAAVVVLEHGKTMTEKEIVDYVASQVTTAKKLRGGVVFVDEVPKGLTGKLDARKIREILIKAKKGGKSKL
Sequence of Mannose-6-phosphate isomerase (P34949 whole entry): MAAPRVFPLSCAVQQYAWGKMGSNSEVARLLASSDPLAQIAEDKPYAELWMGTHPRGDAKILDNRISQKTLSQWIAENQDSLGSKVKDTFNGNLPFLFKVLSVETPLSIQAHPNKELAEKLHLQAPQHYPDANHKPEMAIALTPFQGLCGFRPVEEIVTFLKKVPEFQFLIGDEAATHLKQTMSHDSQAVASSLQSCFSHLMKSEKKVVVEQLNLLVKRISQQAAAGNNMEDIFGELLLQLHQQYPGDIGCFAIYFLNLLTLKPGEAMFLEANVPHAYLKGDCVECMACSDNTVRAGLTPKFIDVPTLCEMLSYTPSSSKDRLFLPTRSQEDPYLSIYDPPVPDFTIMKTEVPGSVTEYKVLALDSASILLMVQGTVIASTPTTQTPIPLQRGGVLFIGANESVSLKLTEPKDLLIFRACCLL

Consider `C[C@@H]1CN([C@H](C)CO)S(=O)(=O)c2ccc(/C=C/c3ccccc3)cc2O[C@H]1CN(C)C(=O)Nc1cc(F)ccc1F`, for which, in experiment [1], the AC50 was > 30 µM (inactive).

As to `COc1ccc(Nc2c([N+](=O)[O-])ccc3c2=NC2(CCCCC2)N=3)cc1`, the IC50 in [2] was > 50 µM (not active); on Nonstructural protein 1 it was 11.1 µM (active).

Take `CC1=CC(C)(C)N=C(S)N1c1cccc2cc(S(=O)(=O)O)ccc12`: the IC50 at ELAV-like protein 1 is 14.7 µM (inactive).

`CCOC(=O)CN(C(=O)CSc1nnc(COc2ccc(OC)cc2)n1C)c1ccccc1`: the EC50 in experiment [3] is listed as > 50 µM (not active).

In the case of `COc1ccc(-c2ccccc2[C@H]2[C@@H](C#N)N(C(=O)C3CCCC3)[C@@H]2CO)cc1`, the half-maximal activity concentration (AC50) was 1.34 µM (active) in experiment [4]; 0.69 µM (active) in experiment [5]; 0.717 µM (active) in [6]; > 42 µM (inactive) in experiment [7]; 2.54 µM (active) in experiment [8]; 0.867 µM (active) in experiment [9].

In the case of `O=C(O)c1ccc(Cl)cc1Nc1nc2cc(Cl)ccc2o1`, the EC50 in experiment [10] was 5.31 µM (active); in [11], 11.3 µM (active) and 12 µM (active).

Regarding `N=C(NOC(=O)c1ccc(Cl)cc1Cl)c1ccccc1`, the EC50 in “cells” is > 67.5 µM (inactive); in experiment [12], 1.06 µM (active); in [13], 6.01 µM (active); in experiment [14], > 67.5 µM (inactive).

In the case of `CC(C)(C)OC(=O)N1CC(O)CC1C(=O)OCC(=O)c1ccc(Cl)cc1` (stereo not drawn), the half-maximal inhibitory concentration (IC50) in experiment [15] was > 100 µM (not active).
